Data reported in the supplement of paper PMC11208160.

Assay: recombinant UMI read abundance after kanamycin selection (control-corrected) (log10(CPM+1)); higher = more efficient recombination; extreme values may be limits of the assay; sequences stand for … in AGTGCAGAGAAAATCGGCCAGTTTTCTCTGCCTGCAGTCCGCATGCCGTGGGACCCCTTGGGTTCTAACCTGTTGCCTAGATTTATGCAGCGGACTGCCTTTCTCCCAAAGTGATAAACCGG…AGGTTGGTTTCACT; site = the 11-nt donor
Description: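 Pooled E. coli donor-specificity screen for the IS621 bridge recombinase. Each library member carries a reprogrammed 11-nt donor and a full-length LE bridge RNA expressed in cis from the natural promoter, with a paired donor-binding loop (8-nt LDG + 4-nt RDG) and a target-binding loop fixed to T5. It is co-electroporated with a T5 target plasmid; recombinase is induced with 0.07 mM IPTG and recombinants are selected on kanamycin. UMIs are counted as CPM, averaged over two biological replicates and corrected by the unselected control. Molecule = full bridge RNA written as DNA, built from the T5 scaffold: LDG = donor specificity nt 1-8, RDG = reverse complement of nt 8-11.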
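Note: IS621 bridge recombinase in Escherichia coli cells against a fixed T5 target plasmid.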

Sequence | recombinant UMI read abundance (log10)
AATGTAACATGGACCGGTTTTCCCGGTAATCCGTATTTGGT (site AATGTAACTAT) | 0.468
AATGTAGCATGGACCGGTTTTCCCGGTAATCCGTATTTGCT (site AATGTAACTAG) | 0
AATGTAGCATGGACCGGTTTTCCCGGTAATCCGTATTTGCT (site AATGTACCTAG) | 0
AATGTAGCATGGACCGGTTTTCCCGGTAATCCGTATTTGCT (site AATGTAGCTAG) | 1.55
AATGTAGCATGGACCGGTTTTCCCGGTAATCCGTATTTGCT (site AATGTATCTAG) | 0.516
AATGTATCATGGACCGGTTTTCCCGGTAATCCGTATTTGAC (site AATGTATCTGT) | 3.11
AATGTATCATGGACCGGTTTTCCCGGTAATCCGTATTTGAC (site AATGTCTCTGT) | 0
AATGTATCATGGACCGGTTTTCCCGGTAATCCGTATTTGAC (site AATGTGTCTGT) | 0
AATGTATCATGGACCGGTTTTCCCGGTAATCCGTATTTGAC (site AATGTTTCTGT) | 0
AATGTCGCATGGACCGGTTTTCCCGGTAATCCGTATTTGGT (site AATGTCGCTAC) | 1.19
AATGTGCCATGGACCGGTTTTCCCGGTAATCCGTATTTGAC (site AATGTGACTGT) | 0
AATGTGCCATGGACCGGTTTTCCCGGTAATCCGTATTTGAC (site AATGTGCCTGT) | 0
AATGTGCCATGGACCGGTTTTCCCGGTAATCCGTATTTGAC (site AATGTGGCTGT) | 0
AATGTGCCATGGACCGGTTTTCCCGGTAATCCGTATTTGAC (site AATGTGTCTGT) | 0
AATGTGCCATGGACCGGTTTTCCCGGTAATCCGTATTTGCT (site AATGTGCCTAG) | 0.0116
AATGTGTCATGGACCGGTTTTCCCGGTAATCCGTATTTGCC (site AATGTGTCTGA) | 0
AATGTGTCATGGACCGGTTTTCCCGGTAATCCGTATTTGCC (site AATGTGTCTGC) | 0
AATGTGTCATGGACCGGTTTTCCCGGTAATCCGTATTTGCC (site AATGTGTCTGG) | 2.81
AATGTGTCATGGACCGGTTTTCCCGGTAATCCGTATTTGCC (site AATGTGTCTGT) | 2.16
AATGTTACATGGACCGGTTTTCCCGGTAATCCGTATTTGCT (site AATGTAACTAG) | 1.05
AATGTTACATGGACCGGTTTTCCCGGTAATCCGTATTTGCT (site AATGTCACTAG) | 1.13
AATGTTACATGGACCGGTTTTCCCGGTAATCCGTATTTGCT (site AATGTGACTAG) | 0.00476
AATGTTACATGGACCGGTTTTCCCGGTAATCCGTATTTGCT (site AATGTTACTAG) | 2.3
AATTAAGCATGGACCGGTTTTCCCGGTAATCCGTATTTGGA (site AATTAAGCTTC) | 0.894

Sequence | recombinant UMI read abundance (log10)
AATTAAGCATGGACCGGTTTTCCCGGTAATCCGTATTTGGA (site AATTACGCTTC) | 0.395
AATTAAGCATGGACCGGTTTTCCCGGTAATCCGTATTTGGA (site AATTAGGCTTC) | 0.648
AATTAAGCATGGACCGGTTTTCCCGGTAATCCGTATTTGGA (site AATTATGCTTC) | 0.412
AATTATCCATGGACCGGTTTTCCCGGTAATCCGTATTTGCT (site AATTATCCTAG) | 0.673
AATTATCCATGGACCGGTTTTCCCGGTAATCCGTATTTGCT (site CATTATCCTAG) | 0.041
AATTATCCATGGACCGGTTTTCCCGGTAATCCGTATTTGCT (site GATTATCCTAG) | 0.232
AATTATCCATGGACCGGTTTTCCCGGTAATCCGTATTTGCT (site TATTATCCTAG) | 0.201
AATTATGCATGGACCGGTTTTCCCGGTAATCCGTATTTGGC (site AATTATGCTAC) | 0.00687
AATTATGCATGGACCGGTTTTCCCGGTAATCCGTATTTGGC (site AATTATGCTCC) | 0.0199
AATTATGCATGGACCGGTTTTCCCGGTAATCCGTATTTGGC (site AATTATGCTGC) | 1.33
AATTATGCATGGACCGGTTTTCCCGGTAATCCGTATTTGGC (site AATTATGCTTC) | 0.332
AATTCTTCATGGACCGGTTTTCCCGGTAATCCGTATTTGTA (site AATTCTTCTTA) | 1.04
AATTTACCATGGACCGGTTTTCCCGGTAATCCGTATTTGGC (site AATTTACCTGC) | 0
ACAAAGACATGGACCGGTTTTCCCGGTAATCCGTATTTGAG (site ACAAAGACTCT) | 2.49
ACAAGTTCATGGACCGGTTTTCCCGGTAATCCGTATTTGTG (site ACAAGTTCTCA) | 2.42
ACAATAACATGGACCGGTTTTCCCGGTAATCCGTATTTGCA (site ACAATAACTTG) | 2.65
ACAATAACATGGACCGGTTTTCCCGGTAATCCGTATTTGCA (site ACAGTATCTTG) | 1.03
ACAATATCATGGACCGGTTTTCCCGGTAATCCGTATTTGGA (site ACAATATCTTC) | 2.07
ACAATATCATGGACCGGTTTTCCCGGTAATCCGTATTTGGA (site ACAGTATCTTG) | 0
ACACACCCATGGACCGGTTTTCCCGGTAATCCGTATTTGAC (site ACACAACCTGT) | 0
ACACACCCATGGACCGGTTTTCCCGGTAATCCGTATTTGAC (site ACACACCCTGT) | 0.957
ACACACCCATGGACCGGTTTTCCCGGTAATCCGTATTTGAC (site ACACAGCCTGT) | 0
ACACACCCATGGACCGGTTTTCCCGGTAATCCGTATTTGAC (site ACACATCCTGT) | 0.471
ACACATACATGGACCGGTTTTCCCGGTAATCCGTATTTGAC (site ACACATACTGT) | 2.71

Sequence | recombinant UMI read abundance (log10)
ACACATACATGGACCGGTTTTCCCGGTAATCCGTATTTGAC (site ACACATCCTGT) | 0
ACACATACATGGACCGGTTTTCCCGGTAATCCGTATTTGAC (site ACACATGCTGT) | 1.74
ACACATACATGGACCGGTTTTCCCGGTAATCCGTATTTGAC (site ACACATTCTGT) | 0.554
ACACATCCATGGACCGGTTTTCCCGGTAATCCGTATTTGCC (site ACACATCCTGA) | 1.25
ACACATCCATGGACCGGTTTTCCCGGTAATCCGTATTTGCC (site ACACATCCTGC) | 0
ACACATCCATGGACCGGTTTTCCCGGTAATCCGTATTTGCC (site ACACATCCTGG) | 1.79
ACACATCCATGGACCGGTTTTCCCGGTAATCCGTATTTGCC (site ACACATCCTGT) | 0
ACACATCCATGGACCGGTTTTCCCGGTAATCCGTATTTGTC (site ACACATCCTGA) | 1.53
ACACATCCATGGACCGGTTTTCCCGGTAATCCGTATTTGTC (site ACACATCCTGC) | 0.011
ACACATCCATGGACCGGTTTTCCCGGTAATCCGTATTTGTC (site ACACATCCTGG) | 0
ACACATCCATGGACCGGTTTTCCCGGTAATCCGTATTTGTC (site ACACATCCTGT) | 0.239
ACACCTGCATGGACCGGTTTTCCCGGTAATCCGTATTTGGG (site ACACCTGCTCC) | 0.734
ACACGAACATGGACCGGTTTTCCCGGTAATCCGTATTTGCC (site ACACGAACTGA) | 1.32
ACACGAACATGGACCGGTTTTCCCGGTAATCCGTATTTGCC (site ACACGAACTGC) | 0
ACACGAACATGGACCGGTTTTCCCGGTAATCCGTATTTGCC (site ACACGAACTGG) | 2.57
ACACGAACATGGACCGGTTTTCCCGGTAATCCGTATTTGCC (site ACACGAACTGT) | 1.59
ACACGAACATGGACCGGTTTTCCCGGTAATCCGTATTTGTT (site ACACGAACTAA) | 2.08
ACACGAACATGGACCGGTTTTCCCGGTAATCCGTATTTGTT (site ACACGAACTCA) | 0.359
ACACGAACATGGACCGGTTTTCCCGGTAATCCGTATTTGTT (site ACACGAACTGA) | 1.96
ACACGAACATGGACCGGTTTTCCCGGTAATCCGTATTTGTT (site ACACGAACTTA) | 1.35
ACACGGACATGGACCGGTTTTCCCGGTAATCCGTATTTGCT (site ACACGGACTAG) | 2.76
ACACGTACATGGACCGGTTTTCCCGGTAATCCGTATTTGGG (site ACACGTACTCC) | 0.42
ACACTATCATGGACCGGTTTTCCCGGTAATCCGTATTTGCG (site ACACTATCTCG) | 2.79
ACACTATCATGGACCGGTTTTCCCGGTAATCCGTATTTGCG (site ACAGTATCTTG) | 0
